Reference: PMC6154583, “Optimized 4,5-Diarylimidazoles as Potent/Selective Inhibitors of Protein Kinase CK1δ and Their Structural Relation to p38α MAPK” (Molecules : A Journal of Synthetic Chemistry and Natural …, 2017)

Experiments:
Type in all cases: biochemical
[1] = system: panel of 321 protein kinases; assay: Selectivity profiling in a panel of 321 protein kinases (ProQinase); settings: 100 nM
ACV-RL1 = molecular target: T1, ACV-RL1 (Homo sapiens, UniProt P37023); assay: ProQinase 33PanQinase selectivity profiling; settings: 100 nM, relative to control, read-out: Residual activity (%)
T1 construct: purchased ProQinase GmbH (Freiburg, Germany)
T1 sequence (P37023 22-503): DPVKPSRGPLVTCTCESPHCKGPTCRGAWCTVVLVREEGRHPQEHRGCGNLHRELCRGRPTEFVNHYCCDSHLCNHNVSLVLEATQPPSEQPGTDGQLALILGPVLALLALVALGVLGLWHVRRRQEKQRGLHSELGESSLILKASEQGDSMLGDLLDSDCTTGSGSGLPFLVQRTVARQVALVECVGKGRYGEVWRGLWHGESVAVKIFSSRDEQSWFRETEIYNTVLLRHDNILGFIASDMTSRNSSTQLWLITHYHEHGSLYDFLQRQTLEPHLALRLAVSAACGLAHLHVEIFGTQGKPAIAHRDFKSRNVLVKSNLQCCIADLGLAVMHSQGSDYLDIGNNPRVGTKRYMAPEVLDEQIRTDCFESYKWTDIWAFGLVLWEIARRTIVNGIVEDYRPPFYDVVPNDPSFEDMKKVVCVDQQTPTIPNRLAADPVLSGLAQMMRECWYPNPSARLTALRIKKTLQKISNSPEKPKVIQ

AKT2 aa107-481 = molecular target: T2, AKT2 aa107-481 (Homo sapiens, UniProt P31751); assay: ProQinase 33PanQinase selectivity profiling; settings: 100 nM, relative to control, read-out: Residual activity (%)
T2 construct: AKT2 aa107-481; purchased ProQinase GmbH (Freiburg, Germany)

ALK (GST-HIS-tag) = molecular target: T3, ALK (GST-HIS-tag) (Homo sapiens, UniProt Q9UM73); assay: ProQinase 33PanQinase selectivity profiling; settings: 100 nM, relative to control, read-out: Residual activity (%)
T3 construct: GST; HIS; purchased ProQinase GmbH (Freiburg, Germany)

ARK5 = ARK5 (Homo sapiens, UniProt O60285); assay: ProQinase 33PanQinase selectivity profiling; settings: 100 nM, relative to control, read-out: Residual activity (%)
Sequence of ARK5 (O60285 whole entry): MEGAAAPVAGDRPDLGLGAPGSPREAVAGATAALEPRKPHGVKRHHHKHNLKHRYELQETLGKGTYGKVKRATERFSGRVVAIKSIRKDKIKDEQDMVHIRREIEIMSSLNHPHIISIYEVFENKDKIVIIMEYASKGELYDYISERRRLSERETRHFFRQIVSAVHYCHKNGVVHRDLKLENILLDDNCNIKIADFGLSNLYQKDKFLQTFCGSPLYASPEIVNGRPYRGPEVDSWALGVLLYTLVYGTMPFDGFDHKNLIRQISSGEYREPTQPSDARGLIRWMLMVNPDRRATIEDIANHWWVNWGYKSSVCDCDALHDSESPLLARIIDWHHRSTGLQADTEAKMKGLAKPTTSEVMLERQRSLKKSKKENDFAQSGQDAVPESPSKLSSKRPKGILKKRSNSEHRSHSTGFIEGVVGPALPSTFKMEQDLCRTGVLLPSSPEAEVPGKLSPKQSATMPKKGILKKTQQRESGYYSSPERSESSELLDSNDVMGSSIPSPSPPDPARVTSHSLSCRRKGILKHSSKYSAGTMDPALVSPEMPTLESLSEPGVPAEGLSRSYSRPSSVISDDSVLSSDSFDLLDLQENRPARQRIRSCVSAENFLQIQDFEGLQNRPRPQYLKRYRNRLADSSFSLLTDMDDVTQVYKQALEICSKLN

ASK1 = ASK1 (Homo sapiens, UniProt Q99683); assay: ProQinase 33PanQinase selectivity profiling; settings: 100 nM, relative to control, read-out: Residual activity (%)
BMPR1A = molecular target: T4, BMPR1A (Homo sapiens, UniProt P36894); assay: ProQinase 33PanQinase selectivity profiling; settings: 100 nM, relative to control, read-out: Residual activity (%)
T4 construct: purchased ProQinase GmbH

BMX = molecular target: T5, BMX (Homo sapiens, UniProt P51813); assay: ProQinase 33PanQinase selectivity profiling; settings: 100 nM, relative to control, read-out: Residual activity (%)
T5 construct: purchased ProQinase GmbH

B-RAF V600E = B-RAF V600E (Homo sapiens, UniProt P15056, V600E); assay: ProQinase 33PanQinase selectivity profiling; settings: 100 nM, relative to control, read-out: Residual activity (%)
BUB1B = molecular target: T6, BUB1B (Homo sapiens, UniProt O60566); assay: ProQinase 33PanQinase selectivity profiling; settings: 100 nM, relative to control, read-out: Residual activity (%)
T6 construct: purchased ProQinase GmbH

CAMK1D = CAMK1D (Homo sapiens, UniProt Q8IU85); assay: ProQinase 33PanQinase selectivity profiling; settings: 100 nM, relative to control, read-out: Residual activity (%)
CAMK2G = CAMK2G (Homo sapiens, UniProt Q13555); assay: ProQinase 33PanQinase selectivity profiling; settings: 100 nM, relative to control, read-out: Residual activity (%)
CAMKK1 = CAMKK1 (Homo sapiens, UniProt Q8N5S9); assay: ProQinase 33PanQinase selectivity profiling; settings: 100 nM, relative to control, read-out: Residual activity (%)
CAMKK2 = CAMKK2 (Homo sapiens, UniProt Q96RR4); assay: ProQinase 33PanQinase selectivity profiling; settings: 100 nM, relative to control, read-out: Residual activity (%)
CDC7/ASK = molecular target: T7, CDC7/ASK (Homo sapiens, UniProt O00311); assay: ProQinase 33PanQinase selectivity profiling; settings: 100 nM, relative to control, read-out: Residual activity (%)
T7 construct: purchased ProQinase GmbH

CDK1/CycA2 = CDK1/CycA2 (Homo sapiens, UniProt P06493); assay: ProQinase 33PanQinase selectivity profiling; settings: 100 nM, relative to control, read-out: Residual activity (%)
CDK1/CycB1 = CDK1/CycB1 (Homo sapiens, UniProt P06493); assay: ProQinase 33PanQinase selectivity profiling; settings: 100 nM, relative to control, read-out: Residual activity (%)
CDK1/CycE1 = CDK1/CycE1 (Homo sapiens, UniProt P06493); assay: ProQinase 33PanQinase selectivity profiling; settings: 100 nM, relative to control, read-out: Residual activity (%)
CDK19/CycC = CDK19/CycC (Homo sapiens, UniProt Q9BWU1); assay: ProQinase 33PanQinase selectivity profiling; settings: 100 nM, relative to control, read-out: Residual activity (%)
CDK2/CycA2 = CDK2/CycA2 (Homo sapiens, UniProt P24941); assay: ProQinase 33PanQinase selectivity profiling; settings: 100 nM, relative to control, read-out: Residual activity (%)
CDK2/CycE1 = CDK2/CycE1 (Homo sapiens, UniProt P24941); assay: ProQinase 33PanQinase selectivity profiling; settings: 100 nM, relative to control, read-out: Residual activity (%)
CDK4/CycD1 = CDK4/CycD1 (Homo sapiens, UniProt P11802); assay: ProQinase 33PanQinase selectivity profiling; settings: 100 nM, relative to control, read-out: Residual activity (%)
CDK5/p25NCK = CDK5/p25NCK (Homo sapiens, UniProt Q00535); assay: ProQinase 33PanQinase selectivity profiling; settings: 100 nM, relative to control, read-out: Residual activity (%)
CDK5/p35NCK = CDK5/p35NCK (Homo sapiens, UniProt Q00535); assay: ProQinase 33PanQinase selectivity profiling; settings: 100 nM, relative to control, read-out: Residual activity (%)
CDK9/CycT1 = CDK9/CycT1 (Homo sapiens, UniProt P50750); assay: ProQinase 33PanQinase selectivity profiling; settings: 100 nM, relative to control, read-out: Residual activity (%)
CK1-alpha1 = CK1-alpha1 (Homo sapiens, UniProt P48729); assay: ProQinase 33PanQinase selectivity profiling; settings: 100 nM, relative to control, read-out: Residual activity (%)
CK1-epsilon = CK1-epsilon (Homo sapiens, UniProt P49674); assay: ProQinase 33PanQinase selectivity profiling; settings: 100 nM, relative to control, read-out: Residual activity (%)
CK1-gamma2 = CK1-gamma2 (Homo sapiens, UniProt P78368); assay: ProQinase 33PanQinase selectivity profiling; settings: 100 nM, relative to control
Sequence of CK1-gamma2 (P78368 whole entry): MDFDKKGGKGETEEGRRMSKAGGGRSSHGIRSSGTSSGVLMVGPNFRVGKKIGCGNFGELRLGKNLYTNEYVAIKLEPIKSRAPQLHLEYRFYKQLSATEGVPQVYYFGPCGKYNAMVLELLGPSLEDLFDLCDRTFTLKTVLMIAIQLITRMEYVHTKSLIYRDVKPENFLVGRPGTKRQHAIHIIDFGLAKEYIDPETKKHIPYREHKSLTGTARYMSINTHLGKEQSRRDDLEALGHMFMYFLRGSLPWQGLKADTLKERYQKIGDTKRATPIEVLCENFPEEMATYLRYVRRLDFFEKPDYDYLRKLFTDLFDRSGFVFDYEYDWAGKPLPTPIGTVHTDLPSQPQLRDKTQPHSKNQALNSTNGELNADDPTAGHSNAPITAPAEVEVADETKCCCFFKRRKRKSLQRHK

CK2-alpha1 = CK2-alpha1 (Homo sapiens, UniProt P68400); assay: ProQinase 33PanQinase selectivity profiling; settings: 100 nM, relative to control, read-out: Residual activity (%)
CK2-alpha2 = CK2-alpha2 (Homo sapiens, UniProt P19784); assay: ProQinase 33PanQinase selectivity profiling; settings: 100 nM, relative to control, read-out: Residual activity (%)
CLK4 = CLK4 (Homo sapiens, UniProt Q9HAZ1); assay: ProQinase 33PanQinase selectivity profiling; settings: 100 nM, relative to control, read-out: Residual activity (%)
Sequence of CLK4 (Q9HAZ1 whole entry): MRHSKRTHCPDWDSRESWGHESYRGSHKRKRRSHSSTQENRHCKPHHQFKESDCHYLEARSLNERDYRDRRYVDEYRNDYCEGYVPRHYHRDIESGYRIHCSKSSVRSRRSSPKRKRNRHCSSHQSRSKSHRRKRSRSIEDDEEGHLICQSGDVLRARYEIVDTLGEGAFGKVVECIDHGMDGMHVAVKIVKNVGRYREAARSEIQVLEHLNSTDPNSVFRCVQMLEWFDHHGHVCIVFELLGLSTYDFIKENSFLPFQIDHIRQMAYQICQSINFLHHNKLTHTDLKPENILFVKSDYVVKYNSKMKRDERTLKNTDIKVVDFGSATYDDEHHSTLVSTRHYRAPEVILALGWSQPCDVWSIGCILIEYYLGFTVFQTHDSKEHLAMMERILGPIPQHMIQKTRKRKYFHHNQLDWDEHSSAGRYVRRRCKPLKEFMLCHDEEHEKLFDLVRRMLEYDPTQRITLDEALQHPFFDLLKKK

COT = molecular target: T8, COT (Homo sapiens, UniProt P41279); assay: ProQinase 33PanQinase selectivity profiling; settings: 100 nM, relative to control, read-out: Residual activity (%)
T8 construct: purchased ProQinase GmbH
T8 sequence (P41279 whole entry): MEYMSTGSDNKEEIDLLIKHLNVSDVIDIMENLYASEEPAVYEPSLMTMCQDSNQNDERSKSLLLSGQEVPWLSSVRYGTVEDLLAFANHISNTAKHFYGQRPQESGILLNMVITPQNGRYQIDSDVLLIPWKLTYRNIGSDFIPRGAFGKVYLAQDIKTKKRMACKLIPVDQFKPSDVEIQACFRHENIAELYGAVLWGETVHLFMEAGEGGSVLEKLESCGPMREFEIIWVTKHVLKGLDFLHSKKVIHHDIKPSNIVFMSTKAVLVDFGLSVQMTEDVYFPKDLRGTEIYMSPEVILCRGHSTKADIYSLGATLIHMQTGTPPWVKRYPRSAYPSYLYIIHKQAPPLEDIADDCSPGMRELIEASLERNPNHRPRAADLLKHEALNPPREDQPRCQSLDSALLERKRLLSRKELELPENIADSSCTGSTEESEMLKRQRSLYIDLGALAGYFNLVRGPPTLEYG

CSF1-R = molecular target: T9, CSF1-R (Homo sapiens, UniProt P07333); assay: ProQinase 33PanQinase selectivity profiling; settings: 100 nM, relative to control, read-out: Residual activity (%)
T9 construct: purchased ProQinase GmbH

DAPK2 = DAPK2 (Homo sapiens, UniProt Q9UIK4); assay: ProQinase 33PanQinase selectivity profiling; settings: 100 nM, relative to control, read-out: Residual activity (%)
DMPK = DMPK (Homo sapiens, UniProt Q09013); assay: ProQinase 33PanQinase selectivity profiling; settings: 100 nM, relative to control, read-out: Residual activity (%)
DYRK1B = DYRK1B (Homo sapiens, UniProt Q9Y463); assay: ProQinase 33PanQinase selectivity profiling; settings: 100 nM, relative to control, read-out: Residual activity (%)
DYRK2 = DYRK2 (Homo sapiens, UniProt Q92630); assay: ProQinase 33PanQinase selectivity profiling; settings: 100 nM, relative to control, read-out: Residual activity (%)
Sequence of DYRK2 (Q92630 whole entry): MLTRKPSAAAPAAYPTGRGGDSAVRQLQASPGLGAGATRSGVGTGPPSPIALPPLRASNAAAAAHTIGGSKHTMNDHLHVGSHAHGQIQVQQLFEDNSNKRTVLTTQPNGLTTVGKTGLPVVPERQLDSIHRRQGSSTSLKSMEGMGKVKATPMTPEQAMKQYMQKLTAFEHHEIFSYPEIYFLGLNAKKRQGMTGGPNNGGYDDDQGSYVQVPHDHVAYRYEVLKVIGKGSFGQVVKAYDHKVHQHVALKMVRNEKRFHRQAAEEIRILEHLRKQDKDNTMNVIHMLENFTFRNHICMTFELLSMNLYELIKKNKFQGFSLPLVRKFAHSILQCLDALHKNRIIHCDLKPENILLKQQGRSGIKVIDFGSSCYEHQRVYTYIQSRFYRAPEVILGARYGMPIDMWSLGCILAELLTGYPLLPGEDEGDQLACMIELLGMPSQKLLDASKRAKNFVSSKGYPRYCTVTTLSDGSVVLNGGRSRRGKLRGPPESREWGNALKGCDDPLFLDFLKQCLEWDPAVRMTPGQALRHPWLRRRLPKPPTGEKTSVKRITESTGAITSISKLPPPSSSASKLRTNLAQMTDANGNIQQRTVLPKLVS

DYRK3 = DYRK3 (Homo sapiens, UniProt O43781); assay: ProQinase 33PanQinase selectivity profiling; settings: 100 nM, relative to control, read-out: Residual activity (%)
Sequence of DYRK3 (O43781 whole entry): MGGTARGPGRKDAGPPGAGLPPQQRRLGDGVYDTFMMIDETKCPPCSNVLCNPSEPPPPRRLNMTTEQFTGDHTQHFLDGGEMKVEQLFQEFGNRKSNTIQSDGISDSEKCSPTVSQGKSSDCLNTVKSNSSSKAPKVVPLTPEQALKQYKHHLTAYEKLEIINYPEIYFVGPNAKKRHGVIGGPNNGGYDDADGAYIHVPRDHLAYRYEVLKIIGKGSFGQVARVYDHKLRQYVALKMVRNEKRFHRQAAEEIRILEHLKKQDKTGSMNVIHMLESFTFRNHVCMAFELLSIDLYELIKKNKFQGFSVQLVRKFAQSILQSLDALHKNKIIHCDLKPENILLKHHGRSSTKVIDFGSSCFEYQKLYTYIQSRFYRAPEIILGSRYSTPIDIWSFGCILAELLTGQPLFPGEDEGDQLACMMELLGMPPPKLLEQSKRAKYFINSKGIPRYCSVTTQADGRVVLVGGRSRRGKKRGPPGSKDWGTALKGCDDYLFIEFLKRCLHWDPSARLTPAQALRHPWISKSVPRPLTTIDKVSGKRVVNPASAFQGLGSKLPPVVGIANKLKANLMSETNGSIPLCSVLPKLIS

EIF2AK3 = molecular target: T10, EIF2AK3 (Homo sapiens, UniProt Q9NZJ5); assay: ProQinase 33PanQinase selectivity profiling; settings: 100 nM, relative to control, read-out: Residual activity (%)
T10 construct: purchased ProQinase GmbH
T10 sequence (Q9NZJ5 30-1116): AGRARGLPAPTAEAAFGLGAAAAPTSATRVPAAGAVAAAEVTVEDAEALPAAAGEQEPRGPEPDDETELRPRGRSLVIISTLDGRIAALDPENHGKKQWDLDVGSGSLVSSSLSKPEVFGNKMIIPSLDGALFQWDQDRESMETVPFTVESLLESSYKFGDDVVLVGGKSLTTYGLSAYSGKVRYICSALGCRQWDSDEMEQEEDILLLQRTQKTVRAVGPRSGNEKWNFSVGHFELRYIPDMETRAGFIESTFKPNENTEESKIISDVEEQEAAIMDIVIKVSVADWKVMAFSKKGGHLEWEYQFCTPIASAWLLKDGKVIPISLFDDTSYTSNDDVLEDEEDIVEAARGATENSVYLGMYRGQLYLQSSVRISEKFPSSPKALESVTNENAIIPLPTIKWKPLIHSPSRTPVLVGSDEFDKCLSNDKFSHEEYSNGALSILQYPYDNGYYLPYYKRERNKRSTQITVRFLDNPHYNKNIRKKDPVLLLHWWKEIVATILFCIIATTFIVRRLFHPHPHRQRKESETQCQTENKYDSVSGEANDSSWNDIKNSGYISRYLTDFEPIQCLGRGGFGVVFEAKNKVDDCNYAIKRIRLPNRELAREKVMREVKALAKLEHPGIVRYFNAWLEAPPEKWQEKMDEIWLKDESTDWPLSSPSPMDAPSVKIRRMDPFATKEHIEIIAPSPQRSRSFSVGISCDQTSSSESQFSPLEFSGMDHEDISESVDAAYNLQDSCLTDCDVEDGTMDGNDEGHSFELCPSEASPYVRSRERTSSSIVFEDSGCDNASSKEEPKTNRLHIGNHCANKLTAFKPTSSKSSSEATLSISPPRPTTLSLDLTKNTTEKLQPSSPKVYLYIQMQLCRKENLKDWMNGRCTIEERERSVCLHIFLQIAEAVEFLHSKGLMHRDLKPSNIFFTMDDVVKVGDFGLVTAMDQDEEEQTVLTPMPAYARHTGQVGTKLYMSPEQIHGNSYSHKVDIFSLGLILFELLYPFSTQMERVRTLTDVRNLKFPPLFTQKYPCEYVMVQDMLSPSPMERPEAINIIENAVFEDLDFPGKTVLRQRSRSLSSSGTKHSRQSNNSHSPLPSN

EPHA1 = EPHA1 (Homo sapiens, UniProt P21709); assay: ProQinase 33PanQinase selectivity profiling; settings: 100 nM, relative to control, read-out: Residual activity (%)
EPHA4 = molecular target: T11, EPHA4 (Homo sapiens, UniProt P54764); assay: ProQinase 33PanQinase selectivity profiling; settings: 100 nM, relative to control, read-out: Residual activity (%)
T11 construct: purchased ProQinase GmbH

EPHA5 = EPHA5 (Homo sapiens, UniProt P54756); assay: ProQinase 33PanQinase selectivity profiling; settings: 100 nM, relative to control, read-out: Residual activity (%)

For `COc1ccc(OC)c(CCC(=O)Nc2cc(-c3nc(SC)[nH]c3-c3ccc(F)cc3)ccn2)c1` [11b, 3-(2,5-Dimethoxyphenyl)-N-(4-(5-(4-fluorophenyl)-2-(methylthio)-1H-imidazol-4-yl)-pyridin-2-yl)-propanamide], the “selectivity score S(50)” value ([1]; 321 protein kinases, calculated in accordance to Karaman et al.) was 0.027, the “additional kinases with residual activities less than 50% apart from CK1δ and CK1ε” value ([1]; panel of 321 protein kinases) was “six” and the remaining activity at 0.1 µM (ACV-RL1) was 99%. It also gave a remaining activity at 0.1 µM (AKT2 aa107-481) of 97%, a remaining activity at 0.1 µM (ALK (GST-HIS-tag)) of 114% and a remaining activity at 0.1 µM (ARK5) of 88%. For the same molecule, the remaining activity at 0.1 µM (ASK1) was 93%, the remaining activity at 0.1 µM (BMPR1A) was 102% and the remaining activity at 0.1 µM (BMX) was 98%. It also gave a remaining activity at 0.1 µM (B-RAF V600E) of 102%, a remaining activity at 0.1 µM (BUB1B) of 102% and a remaining activity at 0.1 µM (CAMK1D) of 78%. The remaining activity at 0.1 µM (CAMK2G) was 105%, the remaining activity at 0.1 µM (CAMKK1) was 99% and the remaining activity at 0.1 µM (CAMKK2) was 96%. For the same molecule, the remaining activity at 0.1 µM (CDC7/ASK) was 97%, the remaining activity at 0.1 µM (CDK1/CycA2) was 91% and the remaining activity at 0.1 µM (CDK1/CycB1) was 95%. It also gave a remaining activity at 0.1 µM (CDK1/CycE1) of 97%, a remaining activity at 0.1 µM (CDK19/CycC) of 86% and a remaining activity at 0.1 µM (CDK2/CycA2) of 87%. It also gave a remaining activity at 0.1 µM (CDK2/CycE1) of 99%, a remaining activity at 0.1 µM (CDK4/CycD1) of 98% and a remaining activity at 0.1 µM (CDK5/p25NCK) of 117%. It also gave a remaining activity at 0.1 µM (CDK5/p35NCK) of 85%, a remaining activity at 0.1 µM (CDK9/CycT1) of 93% and a remaining activity at 0.1 µM (CK1-alpha1) of 26%. For the same molecule, the remaining activity at 0.1 µM (CK1-epsilon) was 7%, the “Residual activity (%)” value (CK1-gamma2) was “unaffected” and the remaining activity at 0.1 µM (CK1-gamma2; read-out: Residual activity (%)) was 91%. For the same molecule, the remaining activity at 0.1 µM (CK2-alpha1) was 97%, the remaining activity at 0.1 µM (CK2-alpha2) was 90% and the remaining activity at 0.1 µM (CLK4) was 95%. It also gave a remaining activity at 0.1 µM (COT) of 111%, a remaining activity at 0.1 µM (CSF1-R) of 104% and a remaining activity at 0.1 µM (DAPK2) of 95%. It also gave a remaining activity at 0.1 µM (DMPK) of 103%, a remaining activity at 0.1 µM (DYRK1B) of 101% and a remaining activity at 0.1 µM (DYRK2) of 99%. It also gave a remaining activity at 0.1 µM (DYRK3) of 97%, a remaining activity at 0.1 µM (EIF2AK3) of 91% and a remaining activity at 0.1 µM (EPHA1) of 104%. It also gave a remaining activity at 0.1 µM (EPHA4) of 96% and a remaining activity at 0.1 µM (EPHA5) of 97%.
